Laboratory results as given in ChEMBL document CHEMBL6087484, “Discovery of Novel Small-Molecule Inhibitors Disrupting the MTDH-SND1 Protein-Protein Interaction” (J Med Chem, 2025).

Test system: MCF7
Assay: Anti-proliferative activity against human MCF7 cells assessed as cell viability measured after 72 hrs by CCK8 assay
Details: MCF7, 72 h

IC50 [µM]	Structure (SMILES)
0.901	O=S(=O)(Nc1cccc2cccnc12)c1cccc2cccnc12
2.35	COc1cc(NS(=O)(=O)c2cccc3cccnc23)c2ncccc2c1
1.17	O=S(=O)(Nc1cc(Cl)cc2cccnc12)c1cccc2cccnc12
4.38	O=S(=O)(Nc1cccc2cc(Br)cnc12)c1cccc2cccnc12
> 10	Cc1ccc2cccc(NS(=O)(=O)c3cccc4cccnc34)c2n1
> 10	COc1ccc(Cl)cc1S(=O)(=O)Nc1cccn2ncnc12
6.42	CC(C)N1CCN(c2ccc(NS(=O)(=O)c3cccc4cccnc34)c3ncccc23)CC1
> 10	O=S(=O)(Nc1cccc2cc(Nc3ccccc3)cnc12)c1cccc2cccnc12
2.89	O=S(=O)(Nc1ccc(Cl)c2cccnc12)c1cccc2cccnc12
2.19	O=S(=O)(Nc1ccc(Br)c2cccnc12)c1cccc2cccnc12
2.11	O=S(=O)(Nc1cc(Br)cc2cccnc12)c1cccc2cccnc12
